How the values were obtained:
[1] = biological target: CtermHisTag-mEGFR Wild type (Homo sapiens, UniProt P00533); assay: TR-FRET probe displacement assay, EGFR wild type; assay type: binding; conditions: EGFR wild type 1.25 nM, probe 100 nM, 30 mins room temperature
Method: (§1) Compounds (dissolved to 100 mM in DMSO) were dispensed into black low volume 384 well assay plates (Corning) over a final concentration range of 100000, 30000, 10000, 3000, 1000, 300, 100, 30, 10, and 3 nM using an Echo 550 (Labcyte). Positive control compound and DMSO as a negative control were dispensed into the first and last well, respectively. […]. Plates were read using a PheraStar FS (BMG Labtech) at Ex337 nm Ex490/520 nm. The data were analysed using Graphpad Prism/Dotmatics Studies Software. Assays conducted in technical replicate and repeated as a biological duplicate.

[2] = biological target: CtermHisTag-mEGFR Triple Mutant - C797S, L858R, T790M (Homo sapiens, UniProt P00533, C797S/L858R/T790M); assay: TR-FRET probe displacement assay, EGFR triple mutant; assay type: binding; conditions: T790M 1.25 nM, probe 100 nM, 30 mins room temperature
Method: as §1

[3] = biological target: T1, Phospho-EGFR (Tyr1068) in H1975 C797S cells (Homo sapiens, UniProt P00533, C797S/L858R/T790M); assay: HTRF pEGFR/total EGFR assay in H1975 C797S cells; assay type: cell-based; conditions: H1975 C797S cells (CRISPR), compound 3 hours, ratio pEGFR/total EGFR
T1 construct: endogenous in cells; host or cells: H1975 C797S (CRISPR-edited in house from ATCC CRL-5908)
T1 sequence (P00533 25-1210 T790M/C797S/L858R): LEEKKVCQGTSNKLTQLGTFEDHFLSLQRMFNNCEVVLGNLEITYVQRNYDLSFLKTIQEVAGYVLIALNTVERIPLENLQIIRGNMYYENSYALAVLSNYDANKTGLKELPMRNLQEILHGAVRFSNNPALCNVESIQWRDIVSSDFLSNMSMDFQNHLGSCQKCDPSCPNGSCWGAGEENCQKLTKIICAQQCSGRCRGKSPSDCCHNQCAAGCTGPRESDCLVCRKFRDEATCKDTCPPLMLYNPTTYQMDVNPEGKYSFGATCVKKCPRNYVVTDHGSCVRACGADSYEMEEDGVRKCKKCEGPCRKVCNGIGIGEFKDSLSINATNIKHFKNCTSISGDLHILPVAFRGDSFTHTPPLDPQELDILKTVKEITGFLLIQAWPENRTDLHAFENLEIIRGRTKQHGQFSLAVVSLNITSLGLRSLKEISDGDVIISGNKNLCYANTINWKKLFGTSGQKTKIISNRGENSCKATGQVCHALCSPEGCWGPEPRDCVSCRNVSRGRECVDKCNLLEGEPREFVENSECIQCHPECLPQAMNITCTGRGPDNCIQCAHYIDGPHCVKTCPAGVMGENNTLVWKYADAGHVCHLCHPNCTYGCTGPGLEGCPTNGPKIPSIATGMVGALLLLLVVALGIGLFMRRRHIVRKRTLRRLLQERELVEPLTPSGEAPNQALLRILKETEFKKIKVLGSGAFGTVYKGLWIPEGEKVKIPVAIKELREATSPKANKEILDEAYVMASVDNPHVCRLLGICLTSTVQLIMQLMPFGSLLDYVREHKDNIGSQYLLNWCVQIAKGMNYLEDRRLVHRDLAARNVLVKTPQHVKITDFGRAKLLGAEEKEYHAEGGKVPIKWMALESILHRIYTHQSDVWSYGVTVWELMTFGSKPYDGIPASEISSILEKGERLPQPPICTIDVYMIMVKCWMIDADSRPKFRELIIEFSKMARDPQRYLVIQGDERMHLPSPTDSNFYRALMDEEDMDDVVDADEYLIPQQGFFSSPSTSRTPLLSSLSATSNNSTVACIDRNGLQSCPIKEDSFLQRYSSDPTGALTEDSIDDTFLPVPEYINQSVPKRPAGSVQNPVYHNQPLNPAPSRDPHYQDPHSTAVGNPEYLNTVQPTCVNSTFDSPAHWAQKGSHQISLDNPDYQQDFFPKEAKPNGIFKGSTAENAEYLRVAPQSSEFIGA
Method: H1975 C797S cells (ATCC CRL-5908) were genetically engineered by CRISPR editing of EGFR C797S in house and validated by NGS. Cells were plated at 20,000 cells per well in 96 well plates and placed at 37° C. 5% CO2. Once adhered (after 24h) cells were treated with compounds dissolved in DMSO at a final concentration of 0.1% DMSO in media. Compounds were diluted in media then added to cells for 3 hours in duplicate. Compound and media were removed from the cells, then 50 ul of HTRF lysis buffer was added (lysis buffer was diluted from 4× stock to 1× in DI water, with 1% blocking agent also added). Cells were lysed on a plate shaker (2000 rpm) for 30 minutes at room temperature. pEGFR expression was monitored using the Cisbio Phospho-EGFR (Tyr1068) cellular kit (64EG1PEH). Total EGFR expression was monitored using the Cisbio Total EGFR cellular kit (64NG1PEH) as per manufacturer's instructions. Fluorescence emission was read at two different wavelengths (665 nm and 620 nm) on a PheraStar. Results were calculated as ratio of pEGFR/total EGFR and then percentage of 0 uM control.

[4] = biological target: T2, Phospho-EGFR (Tyr1068) in H1975 cells (Homo sapiens, UniProt P00533, L858R/T790M); assay: HTRF pEGFR/total EGFR assay in H1975 cells; assay type: cell-based; conditions: compound 3 hours, ratio pEGFR/total EGFR
T2 construct: host or cells: H1975
T2 sequence (P00533 25-1210 T790M/L858R): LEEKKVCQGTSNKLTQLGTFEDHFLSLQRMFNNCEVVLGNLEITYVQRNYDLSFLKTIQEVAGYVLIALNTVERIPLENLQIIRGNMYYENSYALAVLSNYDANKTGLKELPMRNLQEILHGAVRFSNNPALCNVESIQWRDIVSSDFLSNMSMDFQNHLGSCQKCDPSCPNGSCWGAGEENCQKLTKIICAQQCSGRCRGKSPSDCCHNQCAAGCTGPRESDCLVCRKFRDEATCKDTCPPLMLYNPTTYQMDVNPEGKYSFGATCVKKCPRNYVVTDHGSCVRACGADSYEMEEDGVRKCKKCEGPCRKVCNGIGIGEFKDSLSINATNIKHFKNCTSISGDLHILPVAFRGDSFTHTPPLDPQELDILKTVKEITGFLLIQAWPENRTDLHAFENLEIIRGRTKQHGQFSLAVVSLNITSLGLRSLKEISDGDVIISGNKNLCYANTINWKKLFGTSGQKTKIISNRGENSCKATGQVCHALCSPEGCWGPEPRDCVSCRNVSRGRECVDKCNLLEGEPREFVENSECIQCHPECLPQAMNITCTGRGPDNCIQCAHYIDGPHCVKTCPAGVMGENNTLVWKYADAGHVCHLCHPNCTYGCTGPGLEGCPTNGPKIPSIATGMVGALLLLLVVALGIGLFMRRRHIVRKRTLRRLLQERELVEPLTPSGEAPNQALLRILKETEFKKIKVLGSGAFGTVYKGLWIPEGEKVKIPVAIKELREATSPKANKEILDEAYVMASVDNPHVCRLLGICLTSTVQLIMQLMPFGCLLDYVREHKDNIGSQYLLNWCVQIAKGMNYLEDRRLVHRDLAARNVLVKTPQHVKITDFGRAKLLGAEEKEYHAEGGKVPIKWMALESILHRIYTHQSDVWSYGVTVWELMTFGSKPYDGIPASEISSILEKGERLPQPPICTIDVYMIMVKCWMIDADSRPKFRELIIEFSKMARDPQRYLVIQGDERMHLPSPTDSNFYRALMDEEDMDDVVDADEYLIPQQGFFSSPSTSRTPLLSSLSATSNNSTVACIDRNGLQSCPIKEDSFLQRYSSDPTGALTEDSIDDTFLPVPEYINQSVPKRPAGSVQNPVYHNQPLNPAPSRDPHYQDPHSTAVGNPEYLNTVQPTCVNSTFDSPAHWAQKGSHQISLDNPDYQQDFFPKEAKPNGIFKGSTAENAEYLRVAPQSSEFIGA
Method: H1975 cells (ATCC CRL-5908) were plated at 20,000 cells per well in 96 well plates and placed at 37° C. 5% CO2. Once adhered (after 24h) cells were treated with compounds dissolved in DMSO at a final concentration of 0.1% DMSO in media. Compounds were diluted in media then added to cells for 3 hours in duplicate. Compound and media were removed from the cells, then 50ul of HTRF lysis buffer is added (lysis buffer was diluted from 4× stock to 1× in DI water, with 1% blocking agent also added). Cells were lysed on a plate shaker (2000 rpm) for 30 minutes at room temperature. pEGFR expression was monitored using the Cisbio Phospho-EGFR (Tyri068) cellular kit (64EG1 PEH). Total EGFR expression was monitored using the Cisbio Total EGFR cellular kit (64NG1 PEH) as per manufacturer's instructions. Fluorescence emission was read at two different wavelengths (665 nm and 620 nm) on a PheraStar. Results were calculated as ratio of pEGFR/total EGFR and then percentage of 0 uM control.

[5] = biological target: T3, Phospho-EGFR (Tyr1068) in A431 cells (Homo sapiens, UniProt P00533); assay: HTRF pEGFR/total EGFR assay in A431 cells (EGF stimulated); assay type: cell-based; conditions: compound 2.5 hours then 100 ng/ml EGF 30 mins, ratio pEGFR/total EGFR
T3 construct: endogenous in cells; host or cells: A431
T3 sequence (P00533 25-1210): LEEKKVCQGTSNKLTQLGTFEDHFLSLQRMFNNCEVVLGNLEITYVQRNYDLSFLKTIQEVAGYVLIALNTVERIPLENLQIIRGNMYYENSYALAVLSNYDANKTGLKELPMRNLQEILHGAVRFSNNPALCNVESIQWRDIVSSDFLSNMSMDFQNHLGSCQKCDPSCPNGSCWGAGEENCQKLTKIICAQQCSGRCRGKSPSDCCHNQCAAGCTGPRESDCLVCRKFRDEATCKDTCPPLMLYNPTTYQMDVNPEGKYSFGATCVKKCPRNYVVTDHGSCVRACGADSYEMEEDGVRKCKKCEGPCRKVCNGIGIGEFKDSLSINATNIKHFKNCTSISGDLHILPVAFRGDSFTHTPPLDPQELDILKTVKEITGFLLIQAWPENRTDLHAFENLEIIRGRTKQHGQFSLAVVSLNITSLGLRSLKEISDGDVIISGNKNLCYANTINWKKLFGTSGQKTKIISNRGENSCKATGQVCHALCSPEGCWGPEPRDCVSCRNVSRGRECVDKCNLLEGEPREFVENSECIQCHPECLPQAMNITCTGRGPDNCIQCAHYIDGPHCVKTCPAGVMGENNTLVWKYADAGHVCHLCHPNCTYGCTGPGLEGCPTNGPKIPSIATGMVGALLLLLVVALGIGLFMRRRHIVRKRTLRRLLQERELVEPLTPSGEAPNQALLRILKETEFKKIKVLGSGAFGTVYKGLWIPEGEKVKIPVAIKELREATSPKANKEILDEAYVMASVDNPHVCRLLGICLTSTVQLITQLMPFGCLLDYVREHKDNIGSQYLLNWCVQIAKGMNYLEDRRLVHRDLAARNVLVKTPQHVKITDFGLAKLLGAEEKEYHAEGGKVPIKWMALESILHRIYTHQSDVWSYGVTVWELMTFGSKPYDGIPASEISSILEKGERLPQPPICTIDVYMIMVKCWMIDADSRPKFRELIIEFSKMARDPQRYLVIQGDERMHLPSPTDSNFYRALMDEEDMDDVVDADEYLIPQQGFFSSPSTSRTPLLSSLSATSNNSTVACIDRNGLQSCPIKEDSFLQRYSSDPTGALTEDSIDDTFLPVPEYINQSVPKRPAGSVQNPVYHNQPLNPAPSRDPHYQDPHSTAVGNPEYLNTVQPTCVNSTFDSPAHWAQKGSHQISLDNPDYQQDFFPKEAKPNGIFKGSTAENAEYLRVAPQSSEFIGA
Method: Cells were plated at 20,000 cells per well in 96 well plates and placed at 37° C. 5% CO2. Once adhered (after 24h) cells were treated with compounds dissolved in DMSO at a final concentration of 0.1% DMSO in media. Compounds were diluted in media then added to cells for 2.5 hours in duplicate, 100 ng/ml EGF (ThermoFisher, PHG0311 was is added to all compound treated cells as well as a control for 30 mins. Compound and media were removed from the cells, then 50ul of HTRF lysis bufferwas added (lysis bufferwas diluted from 4× stock to 1× in DI water, with 1% blocking agent also added). Cells were lysed on a plate shaker (2000 rpm) for 30 minutes at room temperature. pEGFR expression was monitored using the Cisbio Phospho-EGFR (Tyr1068) cellular kit (64EG1PEH). Total EGFR expression was monitored using the Cisbio Total EGFR cellular kit (64NG1PEH) as per manufacturer's instructions. Fluorescence emission was read at two different wavelengths (665 nm and 620 nm) on a PheraStar. Results were calculated as ratio of pEGFR/total EGFR and then percentage of OuM control.

Sequence of CtermHisTag-mEGFR Wild type (P00533 25-1210): as above

Row | SMILES | IC50 [1] | IC50 [2] | IC50 [3] | IC50 [4] | IC50 [5]
1 | C#Cc1cc(NC(=O)c2ccccc2)nc2nc(Nc3ccc(N4CCN(C)CC4)cc3)ncc12 [Example 29, N-(5-ethynyl-2-{[4-(4-methylpiperazin-1-yl)phenyl]amino}pyrido[2,3-d]pyrimidin-7-yl)benzamide] | 1000 to 10000 nM | 20 to 100 nM | > 3000 nM | > 3000 nM | > 3000 nM
2 | C#Cc1cc(N2C(=O)N(C)CC23CCCC3)nc2nc(Nc3ccc(S(C)(=O)=O)cc3)ncc12 [Example 108, 1-{5-Ethynyl-2-[(4-methanesulfonylphenyl)amino]pyrido [2,3-d]pyrimidin-7-yl}-3-methyl-1,3-diazaspiro [4.4]nonan-2-one] | > 10000 nM | 20 to 100 nM | > 3000 nM | > 3000 nM | 1000 to 3000 nM
3 | C#Cc1cc(N2C(=O)OCC23CCCC3)nc2nc(Nc3ccc(N4CCN(C)CC4)cc3)ncc12 [Example 114, 1-(5-Ethynyl-2-{[4-(4-methylpiperazin-1-yl)phenyl]amino}pyrido[2,3-d]pyrimidin-7-yl)-3-oxa-1-azaspiro[4.4]nonan-2-one] | < 1000 nM | < 20 nM | 500 to 1000 nM | < 500 nM | 1000 to 3000 nM
4 | C#Cc1cc(NC(=O)NC2CCCC2)nc2nc(Nc3ccccc3N3CCC(CS(C)(=O)=O)C3)ncc12 (stereo not drawn) [Example 89] | > 10000 nM | 1000 to 50000 nM | > 3000 nM | > 3000 nM | > 3000 nM
5 | C#Cc1cc(NC(=O)NC2(C)COC2)nc2nc(Nc3ccc(N4CCN(C)CC4)cc3)ncc12 [Example 61, 1-(5-ethynyl-2-((4-(4-methylpiperazin-1-yl)phenyl)amino)pyrido[2,3-d]pyrimidin-7-yl)-3-(3-methyloxetan-3-yl)urea] | < 1000 nM | < 20 nM | < 500 nM | < 500 nM | > 3000 nM
6 | C#Cc1cc(N2C(=O)NCC23CCCC3)nc2nc(Nc3ccc(S(=O)(=O)N(C)CCN(C)C)cc3)ncc12 [Example 98, N-[2-(dimethylamino)ethyl]-4-[(5-ethynyl-7-{2-oxo-1,3-diazaspiro[4.4]nonan-1-yl}pyrido[2,3-d]pyrimidin-2-yl)amino]-N-methylbenzenesulfonamide] | < 1000 nM | 20 to 100 nM | > 3000 nM | > 3000 nM | 1000 to 3000 nM
7 | C#Cc1cc(OC)nc2nc(Nc3cccc(CN(C)C4CCC4)c3)ncc12 [Example 4, N-(3-{[cyclobutyl(methyl)amino]methyl}phenyl)-5-ethynyl-7-methoxypyrido[2,3-d]pyrimidin-2-amine] | > 10000 nM | 100 to 1000 nM | > 3000 nM | > 3000 nM | > 3000 nM
8 | C#Cc1cc(NC(=O)NC2CCCC2)nc2nc(Nc3cccc(N(C)[C@H]4CC[C@@H](CS(C)(=O)=O)CC4)c3)ncc12 [Example 120] | < 1000 nM | 20 to 100 nM | < 500 nM | < 500 nM | –
9 | C#Cc1ccnc2nc(Nc3ccccc3OC)ncc12 [Example 1, 5-ethynyl-N-(2-methoxyphenyl)pyrido[2,3-d]pyrimidin-2-amine] | > 10000 nM | 100 to 1000 nM | – | – | –
10 | C#Cc1cc(NC(=O)NC2CCCC2)nc2nc(Nc3ccc(N4CCN(C5COC5)CC4)cc3)ncc12 [Example 76, 3-Cyclopentyl-1-[5-ethynyl-2-({4-[4-(oxetan-3-yl)piperazin-1-yl]phenyl}amino)pyrido[2,3-d]pyrimidin-7-yl]urea] | < 1000 nM | < 20 nM | < 500 nM | < 500 nM | < 500 nM
11 | C#Cc1cc(NC(=O)N2Cc3ccccc3C2)nc2nc(Nc3ccc(N4CCN(C)CC4)cc3)ncc12 [Example 58, N-(5-ethynyl-2-{[4-(4-methylpiperazin-1-yl)phenyl]amino}pyrido[2,3-d]pyrimidin-7-yl)-1,3-dihydroisoindole-2-carboxamide] | > 10000 nM | 100 to 1000 nM | > 3000 nM | > 3000 nM | > 3000 nM
12 | C#Cc1cc(N2C(=O)NCC23CCCC3)nc2nc(Nc3ccc(N4CCN(C5COC5)CC4)cc3)ncc12 [Example 92, 1-[5-Ethynyl-2-({4-[4-(oxetan-3-yl)piperazin-1-yl]phenyl}amino)pyrido[2,3-d]pyrimidin-7-yl]-1,3-diazaspiro[4.4]nonan-2-one] | < 1000 nM | < 20 nM | 1000 to 3000 nM | 500 to 1000 nM | 1000 to 3000 nM
13 | C#Cc1cc(NC(=O)NCC2CCCC2)nc2nc(Nc3ccc(N4CCN(C)CC4)cc3)ncc12 [Example 40, 3-(cyclopentylmethyl)-1-(5-ethynyl-2-{[4-(4-methylpiperazin-1-yl)phenyl]amino}pyrido[2,3-d]pyrimidin-7-yl)urea] | < 1000 nM | < 20 nM | < 500 nM | < 500 nM | > 3000 nM
14 | C#Cc1cc(Oc2ccccc2)nc2nc(Nc3ccc(N4CCN(C)CC4)cc3)ncc12 [Example 12, 5-ethynyl-N-[4-(4-methylpiperazin-1-yl)phenyl]-7-phenoxypyrido[2,3-d]pyrimidin-2-amine] | > 10000 nM | 100 to 1000 nM | > 3000 nM | > 3000 nM | > 3000 nM
15 | C#Cc1cc(NC(=O)NC2CCCC2)nc2nc(Nc3ccc(N4CCN(C)CC4)cc3)ncc12 [Example 38, 1-cyclopentyl-3-(5-ethynyl-2-((4-(4-methylpiperazin-1-yl)phenyl)amino)pyrido[2,3-d]pyrimidin-7-yl)urea] | < 1000 nM | < 20 nM | < 500 nM | < 500 nM | < 500 nM
16 | C#Cc1cc(NC(=O)OCc2ccccc2)nc2nc(Nc3ccc(N4CCN(C)CC4)cc3)ncc12 [Example 67, benzyl (5-ethynyl-2-((4-(4-methylpiperazin-1-yl)phenyl)amino)pyrido[2,3-d]pyrimidin-7-yl)carbamate] | > 10000 nM | 1000 to 50000 nM | > 3000 nM | > 3000 nM | > 3000 nM
17 | C#Cc1cc(NC(=O)NC2CCCC2)nc2nc(Nc3cccc(N(C)[C@H]4C[C@@H](CS(C)(=O)=O)C4)c3)ncc12 [Example 119] | < 1000 nM | 20 to 100 nM | < 500 nM | < 500 nM | –
18 | C#Cc1cc(NC(=O)NC2CCCC2)nc2nc(Nc3cccc(N(C)[C@H]4CC[C@H](CS(C)(=O)=O)CC4)c3)ncc12 [Example 121] | < 1000 nM | 20 to 100 nM | < 500 nM | 500 to 1000 nM | –
